{"source": "ChEMBL document CHEMBL6177994", "about": "(J Med Chem, 2025)", "key": {"[1]": {"test": "Inhibition of ERK phosphorylation in human GP2d cells harbouring KRAS G12D mutant measured after 24 hrs", "format": "cell-based"}, "[2]": {"system": "Protein cereblon/GTPase KRas (Homo sapiens), P01116+Q96SW2 [G12D]", "sequence (P01116 whole entry G12D)": "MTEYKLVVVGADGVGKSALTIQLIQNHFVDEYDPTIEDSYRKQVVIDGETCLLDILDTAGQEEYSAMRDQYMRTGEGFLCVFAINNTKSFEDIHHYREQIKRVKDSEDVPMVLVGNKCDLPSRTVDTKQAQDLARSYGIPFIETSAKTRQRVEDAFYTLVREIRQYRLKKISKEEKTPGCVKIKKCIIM", "sequence (Q96SW2 whole entry partner)": "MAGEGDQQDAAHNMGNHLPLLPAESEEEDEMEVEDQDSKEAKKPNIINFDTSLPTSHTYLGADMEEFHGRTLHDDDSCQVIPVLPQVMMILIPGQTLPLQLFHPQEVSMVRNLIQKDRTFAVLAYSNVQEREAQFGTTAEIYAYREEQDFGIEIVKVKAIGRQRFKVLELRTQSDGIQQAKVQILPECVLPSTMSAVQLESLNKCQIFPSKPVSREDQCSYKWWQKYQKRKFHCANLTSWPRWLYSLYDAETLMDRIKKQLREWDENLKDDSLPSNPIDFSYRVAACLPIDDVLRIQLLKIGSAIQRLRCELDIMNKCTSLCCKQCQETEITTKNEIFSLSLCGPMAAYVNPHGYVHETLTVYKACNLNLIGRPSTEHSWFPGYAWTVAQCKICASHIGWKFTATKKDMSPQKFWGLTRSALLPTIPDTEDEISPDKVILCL", "test": "In vivo PROTAC activity at CRBN/KRAS G12D mutant in male Balb/c nude mouse xenografted with human PK-59 cells assessed as reduction in ERK phosphorylation level in tumor at 10 mg/kg, iv measured up to 168 hrs", "format": "functional, organism-based"}, "[3]": {"system": "MKN-1", "test": "Antiproliferative activity against human MKN-1 cells harbouring wild type KRAS assessed as inhibition of cell growth measured after 72 hrs by Cell titer glo method", "format": "functional, cell-based"}, "[4]": {"test": "Plasma protein binding in rat at 2 uM by LC-MS/MS analysis", "format": "ADME, cell-free", "conditions": "read-out: PPB"}, "[5]": {"test": "Inhibition of ERK phosphorylation in human PK-59 cells harbouring KRAS G12D mutant measured after 24 hrs", "format": "cell-based", "conditions": "PK-59, 24 h"}, "[6]": {"system": "Protein cereblon/GTPase KRas (Homo sapiens), P01116+Q96SW2 [G12D]", "test": "PROTAC activity at CRBN/KRAS G12D mutant in human ASPC1 cells assessed as induction of KRAS G12D mutant degradation 0.01 to 100 nM measured after 24 hrs by immunoblot analysis relative to control", "format": "cell-based", "conditions": "dose 0.01-100 nM"}, "[7]": {"test": "Half life in male ICR mouse plasma at 10 mg/kg, iv measured after 72 hrs by LC-MS/MS analysis", "format": "ADME, organism-based"}, "[8]": {"test": "Volume of distribution at steady state in male cynomolgus monkey at 1 mg/kg, iv measured up to 24 hrs by LC-MS/MS analysis", "format": "ADME, organism-based, Macaca fascicularis", "conditions": "in vivo, read-out: Vdss"}, "[9]": {"target": "Cytochrome P450 2B6 (Homo sapiens, UniProt P20813)", "sequence (P20813 whole entry)": "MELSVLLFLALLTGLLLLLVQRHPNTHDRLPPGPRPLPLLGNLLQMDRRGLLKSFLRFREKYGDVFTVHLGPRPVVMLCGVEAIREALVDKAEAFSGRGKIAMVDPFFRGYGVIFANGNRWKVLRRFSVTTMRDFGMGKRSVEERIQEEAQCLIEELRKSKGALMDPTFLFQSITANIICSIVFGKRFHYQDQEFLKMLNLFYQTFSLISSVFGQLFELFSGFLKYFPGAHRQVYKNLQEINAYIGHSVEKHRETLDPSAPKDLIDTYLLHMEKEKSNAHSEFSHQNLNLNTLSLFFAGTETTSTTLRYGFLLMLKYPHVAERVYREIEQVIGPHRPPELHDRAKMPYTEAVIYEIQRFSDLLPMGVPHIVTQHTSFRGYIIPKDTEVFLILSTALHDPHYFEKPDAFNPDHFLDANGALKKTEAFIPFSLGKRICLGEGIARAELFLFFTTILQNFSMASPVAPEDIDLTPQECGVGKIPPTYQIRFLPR", "test": "Inhibition of CYP2B6 in human liver microsomes using bupropion as substrate at 10 uM incubated for 20 mins in presence of NADPH by LC/MS analysis", "format": "ADME, Microsome"}, "[10]": {"test": "Toxicity in female Balb/c nude mouse xenografted with human GP2d cells assessed as change in body weight at 1 to 10 mg/kg, iv Q2W measured after 28 days", "format": "organism-based", "conditions": "in vivo, 672 h, dose 1-10 mg/kg, time 28 day"}, "[11]": {"target": "Protein cereblon/GTPase HRas (Homo sapiens) (UniProt P01112+Q96SW2)", "sequence (P01112 whole entry, looked up)": "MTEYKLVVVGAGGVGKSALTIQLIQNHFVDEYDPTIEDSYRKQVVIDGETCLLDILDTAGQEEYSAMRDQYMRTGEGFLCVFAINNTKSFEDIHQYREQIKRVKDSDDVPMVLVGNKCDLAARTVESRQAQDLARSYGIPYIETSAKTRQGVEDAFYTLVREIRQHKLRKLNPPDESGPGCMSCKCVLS", "sequence (Q96SW2 whole entry, looked up)": "as the sequence (Q96SW2 whole entry partner) above", "test": "PROTAC activity at CRBN/HRAS in human MKN-1 cells assessed as […] degradation 0.061 to 1000 nM measured after 24 hrs by immunoblot analysis", "format": "cell-based", "conditions": "dose 0.061-1000 nM"}, "[12]": {"test": "Metabolic stability in human liver microsomes assessed as half life at 1 uM preincubated for 3 mins with NADPH and measured up to 60 mins by LC-MS/MS analysis", "format": "ADME, Microsome", "conditions": "time < 63 min"}, "[13]": {"test": "Plasma protein binding in mouse at 2 uM by LC-MS/MS analysis", "format": "ADME, cell-free", "conditions": "read-out: PPB"}, "[14]": {"test": "Drug concentration in male ICR mouse plasma at 10 mg/kg, iv measured after 0.25 hrs by LC-MS/MS analysis", "format": "ADME, organism-based"}, "[15]": {"test": "Clearance in male Sprague-Dawley rat at 1 mg/kg, iv measured up to 24 hrs by LC-MS/MS analysis", "format": "ADME, organism-based", "conditions": "in vivo"}, "[16]": {"target": "Cytochrome P450 2C9 (Homo sapiens, UniProt P11712)", "sequence (P11712 whole entry)": "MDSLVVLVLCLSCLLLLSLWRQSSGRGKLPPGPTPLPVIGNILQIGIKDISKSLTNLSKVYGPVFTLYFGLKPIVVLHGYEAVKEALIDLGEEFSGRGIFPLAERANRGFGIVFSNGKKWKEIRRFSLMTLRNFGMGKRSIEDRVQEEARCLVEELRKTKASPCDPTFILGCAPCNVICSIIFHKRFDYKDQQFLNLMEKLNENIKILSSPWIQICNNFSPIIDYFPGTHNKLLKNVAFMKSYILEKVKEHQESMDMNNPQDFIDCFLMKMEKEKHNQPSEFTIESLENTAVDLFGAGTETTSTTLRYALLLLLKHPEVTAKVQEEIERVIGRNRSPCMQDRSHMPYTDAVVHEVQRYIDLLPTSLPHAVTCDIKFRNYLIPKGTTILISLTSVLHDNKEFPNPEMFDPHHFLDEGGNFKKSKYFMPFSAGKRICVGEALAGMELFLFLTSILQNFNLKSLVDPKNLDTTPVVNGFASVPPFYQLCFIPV", "test": "Inhibition of CYP2C9 in human liver microsomes using diclofenac as substrate at 10 uM incubated for 15 mins in presence of NADPH by LC/MS analysis", "format": "ADME, Microsome", "conditions": "0.25 h"}, "[17]": {"system": "Protein cereblon/GTPase KRas (Homo sapiens), P01116+Q96SW2 [G12D]", "test": "PROTAC activity at CRBN/KRAS G12D mutant in human ASPC1 cells assessed as induction of KRAS G12D mutant degradation at 1 nM measured after 12 hrs by immunoblot analysis relative to control", "format": "cell-based"}, "[18]": {"test": "Plasma protein binding in monkey at 2 uM by LC-MS/MS analysis", "format": "ADME, cell-free, Macaca mulatta", "conditions": "rhesus monkey, read-out: PPB"}, "[19]": {"test": "Toxicity in female Balb/c nude mouse xenografted with human GP2d cells assessed as drug tolerance at 1 to 10 mg/kg, iv Q2W measured after 28 days", "format": "organism-based", "conditions": "in vivo, 672 h, dose 1-10 mg/kg, time 28 day"}, "[20]": {"system": "Protein cereblon/GTPase KRas (Homo sapiens), P01116+Q96SW2 [G12D]", "test": "In vivo PROTAC activity at CRBN/KRAS G12D mutant in male Balb/c nude mouse xenografted with human PK-59 cells assessed as increase in cleaved caspase 7 level at 10 mg/kg, iv measured up to 168 hrs", "format": "functional, organism-based"}, "[21]": {"system": "ASPC1", "test": "Effect on CK1alpha level in human ASPC1 cells at 10 nM measured after 8 hrs by Western blot analysis", "format": "functional, cell-based"}, "[22]": {"test": "Stability in monkey plasma assessed as half life at 1 uM measured up to 120 mins by LC-MS/MS analysis", "format": "ADME, cell-free, Macaca mulatta", "conditions": "rhesus monkey"}, "[23]": {"system": "CCRF-CEM", "test": "Antitumor activity against human CCRF-CEM cells harbouring KRAS G12D mutant xenografted in female Balb/c nude mouse model assessed as tumor regression at 1 to 10 mg/kg, iv QW administered weekly and measured after 28 days", "format": "functional, organism-based", "conditions": "dose 1-10 mg/kg, time 28.0 day"}, "[24]": {"target": "Protein cereblon/GTPase NRas (Homo sapiens) (UniProt P01111+Q96SW2)", "sequence (P01111 whole entry, looked up)": "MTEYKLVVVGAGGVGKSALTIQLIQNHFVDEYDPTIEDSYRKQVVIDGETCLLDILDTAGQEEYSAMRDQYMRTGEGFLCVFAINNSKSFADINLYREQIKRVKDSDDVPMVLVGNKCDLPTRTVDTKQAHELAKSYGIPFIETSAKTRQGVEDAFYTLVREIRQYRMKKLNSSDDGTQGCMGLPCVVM", "sequence (Q96SW2 whole entry, looked up)": "as the sequence (Q96SW2 whole entry partner) above", "test": "PROTAC activity at CRBN/NRAS in human MKN-1 cells assessed as induction of […] 0.061 to 1000 nM measured after 24 hrs by immunoblot analysis", "format": "cell-based", "conditions": "dose 0.061-1000 nM"}, "[25]": {"target": "Cytochrome P450 3A4 (Homo sapiens, UniProt P08684)", "sequence (P08684 whole entry)": "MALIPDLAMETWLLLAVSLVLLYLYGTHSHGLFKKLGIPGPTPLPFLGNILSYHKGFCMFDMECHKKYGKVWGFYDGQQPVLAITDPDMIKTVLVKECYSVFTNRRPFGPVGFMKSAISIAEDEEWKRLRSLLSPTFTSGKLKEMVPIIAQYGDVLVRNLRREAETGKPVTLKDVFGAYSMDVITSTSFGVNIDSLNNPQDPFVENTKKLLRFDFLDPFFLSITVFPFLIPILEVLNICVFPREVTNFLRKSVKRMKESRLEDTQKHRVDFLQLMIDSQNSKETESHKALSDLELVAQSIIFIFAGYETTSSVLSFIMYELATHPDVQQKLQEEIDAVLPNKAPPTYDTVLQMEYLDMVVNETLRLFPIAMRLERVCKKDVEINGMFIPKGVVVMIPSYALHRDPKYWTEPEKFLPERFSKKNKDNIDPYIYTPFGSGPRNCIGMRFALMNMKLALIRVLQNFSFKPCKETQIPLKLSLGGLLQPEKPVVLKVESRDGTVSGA", "test": "Inhibition of CYP3A4 in human liver microsomes using testosterone as substrate at 10 uM incubated for 15 mins in presence of NADPH by LC/MS analysis", "format": "ADME, Microsome", "conditions": "0.25 h"}, "[26]": {"target": "Protein cereblon/GTPase KRas (Homo sapiens) (UniProt P01116+Q96SW2)", "sequence (P01116 whole entry, looked up)": "as the sequence (P01116 whole entry G12D) above, with D12G counted along it", "sequence (Q96SW2 whole entry, looked up)": "as the sequence (Q96SW2 whole entry partner) above", "test": "PROTAC activity at CRBN/KRAS in human MKN-1 cells assessed as induction of KRAS degradation 1 nM measured after 24 hrs by immunoblot analysis", "format": "cell-based"}, "[27]": {"system": "ASPC1", "test": "Potency index , ratio of MRTX1133 IC50 to test compound IC50 for antiproliferative activity against human ASPC1 cells assessed as inhibition of cell growth measured after 72 hrs by Cell titer glo method", "format": "functional"}, "[28]": {"test": "Clearance in male cynomolgus monkey at 1 mg/kg, iv measured up to 24 hrs by LC-MS/MS analysis", "format": "ADME, organism-based, Macaca fascicularis", "conditions": "in vivo"}, "[29]": {"system": "Protein cereblon/GTPase KRas (Homo sapiens), P01116+Q96SW2 [G12D]", "test": "PROTAC activity at CRBN/KRAS G12D mutant in human ASPC1 cells assessed as induction of KRAS G12D mutant degradation at 5 nM preincubated with CRBN ligand followed by compound addition and measured after 24 hrs by Western blot analysis", "format": "cell-based"}, "[30]": {"system": "Protein cereblon/GTPase KRas (Homo sapiens), P01116+Q96SW2 [G12D]", "test": "PROTAC activity at CRBN/KRAS G12D mutant in human ASPC1 cells assessed as induction of KRAS G12D mutant degradation at 50 nM measured after 24 hrs by immunoblot analysis relative to control", "format": "cell-based"}, "[31]": {"system": "HCC1588", "test": "Antiproliferative activity against human HCC1588 cells harbouring KRAS G12D mutant assessed as inhibition of cell growth measured after 72 hrs by Cell titer glo method", "format": "functional, cell-based"}, "[32]": {"test": "Metabolic stability in monkey liver microsomes assessed as half life at 1 uM preincubated for 3 mins with NADPH and measured up to 60 mins by LC-MS/MS analysis", "format": "ADME, Macaca mulatta, Microsome", "conditions": "rhesus monkey, time < 63 min"}, "[33]": {"system": "ASPC1", "test": "Effect on GSPT1 level in human ASPC1 cells at 10 nM measured after 8 hrs by Western blot analysis", "format": "functional, cell-based"}}, "note": "The source made the active and inactive calls. The calls are words filed in the database; no cut-off is given here."}
{"smiles": "C#Cc1c(F)ccc2cc(O)cc(-c3ncc4c(N5CC6CCC(C5)N6)nc(OCC5(CN6CCC7(CC6)CC(N6CCC(c8cc9c(cc8F)c(N8CCC(=O)NC8=O)nn9C)CC6)C7)CC5)nc4c3F)c12", "values": [{"measurement": "IC50", "setting": "[1]", "value": 0.35, "unit": "nM"}, {"measurement": "Activity", "setting": "[2]", "value": "Active"}, {"measurement": "Activity", "setting": "[3]", "value": "Weak_effect; Compound Showed Weaker Potency In Antiproliferative Activity Compared To Mrtx1133"}, {"measurement": "fraction unbound at 2 µM", "setting": "[4]", "value": "< 0.05"}, {"measurement": "IC50", "setting": "[5]", "value": 2.7, "unit": "nM"}, {"measurement": "Emax", "setting": "[6]", "value": 89, "unit": "%"}, {"measurement": "half-life", "setting": "[7]", "value": 15.1, "unit": "h"}, {"measurement": "Vd", "setting": "[8]", "value": 12.7, "unit": "L/kg"}, {"measurement": "inhibition (INH)", "setting": "[9]", "value": "Not_active"}, {"measurement": "Activity", "setting": "[10]", "value": "Non-toxic"}, {"measurement": "Activity", "setting": "[11]", "value": "inactive"}, {"measurement": "half-life at 1 µM", "setting": "[12]", "value": 2.57, "unit": "h"}, {"measurement": "fraction unbound at 2 µM", "setting": "[13]", "value": "< 0.05"}, {"measurement": "concentration at 0.25 h", "setting": "[14]", "value": 903, "unit": "ng/mL"}, {"measurement": "clearance", "setting": "[15]", "value": 33, "unit": "mL/min/kg"}, {"measurement": "inhibition (INH)", "setting": "[16]", "value": "Not_active"}, {"measurement": "Activity", "setting": "[17]", "value": 70, "unit": "%"}, {"measurement": "fraction unbound at 2 µM", "setting": "[18]", "value": "< 0.05"}, {"measurement": "Activity", "setting": "[19]", "value": "Non-toxic"}, {"measurement": "Activity", "setting": "[20]", "value": "Active"}, {"measurement": "Activity", "setting": "[21]", "value": "inactive"}, {"measurement": "half-life at 1 µM", "setting": "[22]", "value": 12.8, "unit": "h"}, {"measurement": "Activity", "setting": "[23]", "value": "Weak_effect"}, {"measurement": "Activity", "setting": "[24]", "value": "inactive"}, {"measurement": "inhibition (INH)", "setting": "[25]", "value": "Not_active"}, {"measurement": "Activity", "setting": "[26]", "value": "inactive"}, {"measurement": "Ratio IC50", "setting": "[27]", "value": ">10"}, {"measurement": "clearance", "setting": "[28]", "value": 19.5, "unit": "mL/min/kg"}, {"measurement": "Activity", "setting": "[29]", "value": "Active"}, {"measurement": "Activity", "setting": "[30]", "value": 74, "unit": "%"}, {"measurement": "Activity", "setting": "[31]", "value": "Active; Compound Showed Stronger Antiproliferative Activity Compared To Mrtx1133"}, {"measurement": "half-life at 1 µM", "setting": "[32]", "value": 7.22, "unit": "h"}, {"measurement": "Activity", "setting": "[33]", "value": "inactive"}]}
